Measured values published in ChEMBL document CHEMBL3045835, “Comparative study of conventional and microwave-assisted synthesis of some Schiff bases and their potential as antimicrobial agents” (2012).
Values after ≈ are worked out from the molar mass of the structure shown.

What was measured:
Type in all cases: functional
Penicillium chrysogenum [1] = assay: Antifungal activity against Penicillium chrysogenum MTCC 161 after 24 hr by broth dilution method; settings: MTCC 161, 24 h
Micrococcus luteus [2] = assay: Antibacterial activity against Micrococcus luteus MTCC 1538 at 1500 ug/ml after 18 hr by cup-plate method; settings: MTCC 1538, 18 h, read-out: DIZ
Pseudomonas fluorescens [3] = assay: Antibacterial activity against Pseudomonas fluorescens MTCC 2421 at 200 ug/ml after 18 hr by cup-plate method; settings: MTCC 2421, 18 h, read-out: DIZ
Micrococcus luteus [4] = assay: Antibacterial activity against Micrococcus luteus MTCC 1538 at 100 ug/ml after 18 hr by cup-plate method; settings: MTCC 1538, 18 h, read-out: DIZ
Micrococcus luteus [5] = assay: Antibacterial activity against Micrococcus luteus MTCC 1538 at 500 ug/ml after 18 hr by cup-plate method; settings: MTCC 1538, 18 h, read-out: DIZ
Pseudomonas aeruginosa [6] = assay: Antibacterial activity against Pseudomonas aeruginosa MTCC 424 after 24 hr by broth dilution method; settings: MTCC 424, 24 h
Staphylococcus aureus [7] = assay: Antibacterial activity against Staphylococcus aureus MTCC 1430 at 1500 ug/ml after 18 hr by cup-plate method; settings: MTCC 1430, 18 h, read-out: DIZ
Staphylococcus aureus [8] = assay: Antibacterial activity against Staphylococcus aureus MTCC 1430 at 100 ug/ml after 18 hr by cup-plate method; settings: MTCC 1430, 18 h, read-out: DIZ
Micrococcus luteus [9] = assay: Antibacterial activity against Micrococcus luteus MTCC 1538 at 1000 ug/ml after 18 hr by cup-plate method; settings: MTCC 1538, 18 h, read-out: DIZ
Bacillus subtilis [10] = assay: Antibacterial activity against Bacillus subtilis MTCC 441 after 24 hr by broth dilution method; settings: MTCC 441, 24 h
Pseudomonas fluorescens [11] = assay: Antibacterial activity against Pseudomonas fluorescens MTCC 2421 after 24 hr by broth dilution method; settings: MTCC 2421, 24 h
Bacillus pumilus [12] = assay: Antibacterial activity against Bacillus pumilus MTCC 1456 after 24 hr by broth dilution method; settings: MTCC 1456, 24 h
Staphylococcus aureus [13] = assay: Antibacterial activity against Staphylococcus aureus MTCC 1430 at 1000 ug/ml after 18 hr by cup-plate method; settings: MTCC 1430, 18 h, read-out: DIZ
Staphylococcus aureus [14] = assay: Antibacterial activity against Staphylococcus aureus MTCC 1430 at 500 ug/ml after 18 hr by cup-plate method; settings: MTCC 1430, 18 h, read-out: DIZ
Pseudomonas aeruginosa [15] = assay: Antibacterial activity against Pseudomonas aeruginosa MTCC 424 at 1500 ug/ml after 18 hr by cup-plate method; settings: MTCC 424, 18 h, read-out: DIZ
Bacillus subtilis [16] = assay: Antibacterial activity against Bacillus subtilis MTCC 441 at 1500 ug/ml after 18 hr by cup plate method; settings: MTCC 441, 18 h, read-out: DIZ
Aspergillus niger [17] = assay: Antifungal activity against Aspergillus niger MTCC 2546 after 24 hr by broth dilution method; settings: MTCC 2546, 24 h
Penicillium chrysogenum [18] = assay: Antifungal activity against Penicillium chrysogenum MTCC 161 at 1000 ug/ml after 18 hr by cup-plate method; settings: MTCC 161, 18 h, read-out: DIZ
Escherichia coli [19] = assay: Antibacterial activity against Escherichia coli MTCC 1573 at 1000 ug/ml after 18 hr by cup-plate method; settings: MTCC 1573, 18 h, read-out: DIZ
Micrococcus luteus [20] = assay: Antibacterial activity against Micrococcus luteus MTCC 1538 at 200 ug/ml after 18 hr by cup-plate method; settings: MTCC 1538, 18 h, read-out: DIZ
Pseudomonas fluorescens [21] = assay: Antibacterial activity against Pseudomonas fluorescens MTCC 2421 at 100 ug/ml after 18 hr by cup-plate method; settings: MTCC 2421, 18 h, read-out: DIZ
Aspergillus niger [22] = assay: Antifungal activity against Aspergillus niger MTCC 2546 at 1500 ug/ml after 18 hr by cup-plate method; settings: MTCC 2546, 18 h, read-out: DIZ
Escherichia coli [23] = assay: Antibacterial activity against Escherichia coli MTCC 1573 after 24 hr by broth dilution method; settings: MTCC 1573, 24 h
Micrococcus luteus [24] = assay: Antibacterial activity against Micrococcus luteus MTCC 1538 after 24 hr by broth dilution method; settings: MTCC 1538, 24 h
Bacillus pumilus [25] = assay: Antibacterial activity against Bacillus pumilus MTCC 1456 at 1500 ug/ml after 18 hr by cup-plate method; settings: MTCC 1456, 18 h, read-out: DIZ
Penicillium chrysogenum [26] = assay: Antifungal activity against Penicillium chrysogenum MTCC 161 at 500 ug/ml after 18 hr by cup-plate method; settings: MTCC 161, 18 h, read-out: DIZ
Staphylococcus aureus [27] = assay: Antibacterial activity against Staphylococcus aureus MTCC 1430 at 200 ug/ml after 18 hr by cup-plate method; settings: MTCC 1430, 18 h, read-out: DIZ
Staphylococcus aureus [28] = assay: Antibacterial activity against Staphylococcus aureus MTCC 1430 after 24 hr by broth dilution method; settings: MTCC 1430, 24 h
Bacillus pumilus [29] = assay: Antibacterial activity against Bacillus pumilus MTCC 1456 at 1000 ug/ml after 18 hr by cup-plate method; settings: MTCC 1456, 18 h, read-out: DIZ
Aspergillus niger [30] = assay: Antifungal activity against Aspergillus niger MTCC 2546 at 500 ug/ml after 18 hr by cup-plate method; settings: MTCC 2546, 18 h, read-out: DIZ
Pseudomonas fluorescens [31] = assay: Antibacterial activity against Pseudomonas fluorescens MTCC 2421 at 1000 ug/ml after 18 hr by cup-plate method; settings: MTCC 2421, 18 h, read-out: DIZ
Escherichia coli [32] = assay: Antibacterial activity against Escherichia coli MTCC 1573 at 1500 ug/ml after 18 hr by cup-plate method; settings: MTCC 1573, 18 h, read-out: DIZ
Bacillus subtilis [33] = assay: Antibacterial activity against Bacillus subtilis MTCC 441 at 1000 ug/ml after 18 hr by cup plate method; settings: MTCC 441, 18 h, read-out: DIZ
Pseudomonas fluorescens [34] = assay: Antibacterial activity against Pseudomonas fluorescens MTCC 2421 at 500 ug/ml after 18 hr by cup-plate method; settings: MTCC 2421, 18 h, read-out: DIZ
Pseudomonas aeruginosa [35] = assay: Antibacterial activity against Pseudomonas aeruginosa MTCC 424 at 1000 ug/ml after 18 hr by cup-plate method; settings: MTCC 424, 18 h, read-out: DIZ
Pseudomonas fluorescens [36] = assay: Antibacterial activity against Pseudomonas fluorescens MTCC 2421 at 1500 ug/ml after 18 hr by cup-plate method; settings: MTCC 2421, 18 h, read-out: DIZ
Aspergillus niger [37] = assay: Antifungal activity against Aspergillus niger MTCC 2546 at 1000 ug/ml after 18 hr by cup-plate method; settings: MTCC 2546, 18 h, read-out: DIZ
Penicillium chrysogenum [38] = assay: Antifungal activity against Penicillium chrysogenum MTCC 161 at 1500 ug/ml after 18 hr by cup-plate method; settings: MTCC 161, 18 h, read-out: DIZ

SMILES: Clc1ccc(/N=C\c2cccc3ccccc23)cc1
- MIC (Penicillium chrysogenum [1]): 500 µg/mL (≈ 1880 µM)
- zone of inhibition at 1500 µg/mL (Micrococcus luteus [2]): 25 mm
- zone of inhibition at 200 µg/mL (Pseudomonas fluorescens [3]): 12 mm
- zone of inhibition at 100 µg/mL (Micrococcus luteus [4]): 13 mm
- zone of inhibition at 500 µg/mL (Micrococcus luteus [5]): 19 mm
- MIC (Pseudomonas aeruginosa [6]): 500 µg/mL (≈ 1880 µM)
- zone of inhibition at 1500 µg/mL (Staphylococcus aureus [7]): 21 mm
- zone of inhibition at 100 µg/mL (Staphylococcus aureus [8]): 11 mm
- zone of inhibition at 1000 µg/mL (Micrococcus luteus [9]): 21 mm
- MIC (Bacillus subtilis [10]): 500 µg/mL (≈ 1880 µM)
- MIC (Pseudomonas fluorescens [11]): 300 µg/mL (≈ 1130 µM)
- MIC (Bacillus pumilus [12]): 500 µg/mL (≈ 1880 µM)
- zone of inhibition at 1000 µg/mL (Staphylococcus aureus [13]): 18 mm
- zone of inhibition at 500 µg/mL (Staphylococcus aureus [14]): 15 mm
- zone of inhibition at 1500 µg/mL (Pseudomonas aeruginosa [15]): 14 mm
- zone of inhibition at 1500 µg/mL (Bacillus subtilis [16]): 17 mm
- MIC (Aspergillus niger [17]): 500 µg/mL (≈ 1880 µM)
- zone of inhibition at 1000 µg/mL (Penicillium chrysogenum [18]): 13 mm
- zone of inhibition at 1000 µg/mL (Escherichia coli [19]): 11 mm
- zone of inhibition at 200 µg/mL (Micrococcus luteus [20]): 16 mm
- zone of inhibition at 100 µg/mL (Pseudomonas fluorescens [21]): 11 mm
- zone of inhibition at 1500 µg/mL (Aspergillus niger [22]): 15 mm
- MIC (Escherichia coli [23]): 500 µg/mL (≈ 1880 µM)
- MIC (Micrococcus luteus [24]): 300 µg/mL (≈ 1130 µM)
- zone of inhibition at 1500 µg/mL (Bacillus pumilus [25]): 10 mm
- zone of inhibition at 500 µg/mL (Penicillium chrysogenum [26]): 11 mm
- zone of inhibition at 200 µg/mL (Staphylococcus aureus [27]): 13 mm
- MIC (Staphylococcus aureus [28]): 400 µg/mL (≈ 1510 µM)
- zone of inhibition at 1000 µg/mL (Bacillus pumilus [29]): 9 mm
- zone of inhibition at 500 µg/mL (Aspergillus niger [30]): 11 mm
- zone of inhibition at 1000 µg/mL (Pseudomonas fluorescens [31]): 17 mm
- zone of inhibition at 1500 µg/mL (Escherichia coli [32]): 17 mm
- zone of inhibition at 1000 µg/mL (Bacillus subtilis [33]): 15 mm
- zone of inhibition at 500 µg/mL (Pseudomonas fluorescens [34]): 14 mm
- zone of inhibition at 1000 µg/mL (Pseudomonas aeruginosa [35]): 13 mm
- zone of inhibition at 1500 µg/mL (Pseudomonas fluorescens [36]): 19 mm
- zone of inhibition at 1000 µg/mL (Aspergillus niger [37]): 13 mm
- zone of inhibition at 1500 µg/mL (Penicillium chrysogenum [38]): 14 mm
